Tested on: Multidrug-Resistant Mycobacterium Tuberculosis (MDR-TB)
Assay: microbe, parasite or virus in culture
Format: cell-based
Conditions: read-out: minimum inhibitory concentration (MIC)

Compound: O=C(/C=C(\O)c1cc(Cc2c(F)cc(F)cc2F)cn(Cc2ccccc2F)c1=O)C(=O)N1CCN(c2cccc3ccccc23)CC1
- MIC: < 1 µg/mL
